Source: ChEMBL document CHEMBL1201862, “PubChem BioAssay data set” (2004)
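Step 1: Grow cells in 96-well plates. Step 2: Expose to compound for 48 hours at 5 concentrations. Step 3: Interpolate endpoints linearly; if unreached, use highest concentration. GI50 = concentration required for 50% inhibition of growth.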 Calls of active or inactive are those of the source. No stated cut-off is given here; in the data, active = GI50 up to about 1.1 µM and inactive = higher.

Key:
Test in all cases: inhibition of tumour cell growth, NCI panel, 48 h
[1] = test system: SN12C
[2] = test system: HL-60
[3] = test system: HCT-116
[4] = test system: IGROV-1
[5] = test system: OVCAR-5
[6] = test system: NCI-H460
[7] = test system: MCF7
[8] = test system: SR
[9] = test system: SW-620
[10] = test system: K562
[11] = test system: A549
[12] = test system: SNB-75
[13] = test system: MOLT-4
[14] = test system: A498
[15] = test system: HCC 2998
[16] = test system: MDA-N
[17] = test system: KM12
[18] = test system: SK-OV-3
[19] = test system: DU-145
[20] = test system: SF-295
[21] = test system: OVCAR-3
[22] = test system: NCI/ADR-RES
[23] = test system: U-251
[24] = test system: NCI-H23
[25] = test system: NCI-H226
[26] = test system: SK-MEL-28
[27] = test system: SK-MEL-5
[28] = test system: MDA-MB-231
[29] = test system: OVCAR-8
[30] = test system: MDA-MB-435
[31] = test system: BT-549
[32] = test system: CCRF-CEM
[33] = test system: HT-29
[34] = test system: LOX IMVI
[35] = test system: Hs-578T
[36] = test system: HOP-62
[37] = test system: SK-MEL-2
[38] = test system: NCI-H522
[39] = test system: ACHN
[40] = test system: UO-31
[41] = test system: SF-539
[42] = test system: SNB-19
[43] = test system: M14
[44] = test system: CAKI-1
[45] = test system: Malme-3M
[46] = test system: COLO 205
[47] = test system: UACC-62
[48] = test system: SF-268
[49] = test system: 786-0
[50] = test system: RPMI-8226
[51] = test system: T47D
[52] = test system: OVCAR-4
[53] = test system: PC-3
[54] = test system: RXF 393
[55] = test system: HOP-92
[56] = test system: HCT-15
[57] = test system: UACC-257
[58] = test system: TK-10
[59] = test system: EKVX

Measured: GI50

CC(=O)c1ccc(Nc2c3ccccc3nc3occc23)cc1
active: [1] 0.0172 µM | [2] < 0.01 µM | [3] < 0.01 µM | [4] < 0.01 µM | [5] 0.327 µM | [6] 0.01 µM | [7] < 0.01 µM | [8] < 10 nM | [9] < 0.01 µM | [10] < 0.01 µM | [11] 0.124 µM | [12] 10.9 nM | [13] < 0.01 µM | [15] 0.0498 µM | [16] < 0.01 µM | [17] < 0.01 µM | [18] 0.0402 µM | [19] 0.0213 µM | [20] < 0.01 µM | [21] < 0.01 µM | [22] < 0.01 µM | [23] < 0.0124 µM | [24] 0.175 µM | [25] 0.168 µM | [26] 0.643 µM | [27] < 0.0219 µM | [28] 0.0194 µM | [29] 0.0174 µM | [30] < 0.01 µM | [32] < 10 nM | [33] < 0.01 µM | [34] < 0.0143 µM | [35] 15.2 nM | [36] 0.0127 µM | [37] 0.0108 µM | [38] < 0.01 µM | [39] < 0.01 µM | [40] 0.0196 µM | [41] < 0.01 µM | [42] < 0.0168 µM | [43] < 0.01 µM | [44] < 0.01 µM | [45] < 0.01 µM | [46] < 0.01 µM | [47] < 0.01 µM | [48] < 0.0105 µM | [49] < 0.01 µM | [50] < 10 nM | [51] 0.011 µM | [52] < 0.0246 µM | [53] < 0.01 µM | [54] < 0.01 µM | [58] 0.0371 µM
inactive: [14] 2.32 µM | [31] 2.12 µM | [55] 2.56 µM | [57] 17.1 µM
< 0.01 µM: [56]

CCOC(=O)c1c(C)n(-c2ccc(C)cc2)c2c1cc(O)c1[nH]c3c(c12)CCCC3
inactive: [1] 27.5 µM | [2] 7.4 µM | [3] 21.8 µM | [4] 13.8 µM | [5] 23.5 µM | [6] 24.8 µM | [59] 26.1 µM | [7] 16.5 µM | [9] 17.6 µM | [10] 17.7 µM | [11] 18.8 µM | [13] 8.77 µM | [14] 13.9 µM | [15] 14.6 µM | [16] 20.6 µM | [17] 16.7 µM | [18] 87.3 µM | [19] 12.8 µM | [20] 20.6 µM | [21] 12.9 µM | [22] 39.8 µM | [23] 14.8 µM | [24] 20.3 µM | [25] 23.8 µM | [26] 16.3 µM | [27] 11.9 µM | [28] 20 µM | [29] 22.4 µM | [30] 20.1 µM | [31] 10.1 µM | [32] 1380 nM | [33] 14.9 µM | [34] 14.4 µM | [36] 27.9 µM | [37] 12.4 µM | [38] 12.7 µM | [39] 22.1 µM | [40] 13.9 µM | [41] 15.7 µM | [42] 19.4 µM | [43] 16.6 µM | [44] 27.9 µM | [45] 17.7 µM | [46] 25.6 µM | [47] 17.3 µM | [48] 17.5 µM | [49] 16.9 µM | [50] 4070 nM | [51] 20.9 µM | [52] 13.7 µM | [53] 12.9 µM | [54] 12 µM | [55] 2.92 µM | [57] 21.2 µM | [58] 27.5 µM
24.3 µM: [56]
active: [8] 56.6 nM | [12] 65.8 nM | [35] < 10 nM
